Assay results as given in patent publication US20250171423A1, “PHARMACEUTICAL COMPOUNDS FOR THE TREATMENT OF COMPLEMENT MEDIATED DISORDERS” (Achillion Pharmaceuticals, Inc., priority 2020, published 2025).

biological target: T1, Human complement C1s enzyme (Homo sapiens, UniProt P09871); assay: Human C1s Enzyme Assay; assay type: biochemical; conditions: human C1s 1.16 nM, 5 min preincubation, substrate Z-L-Lys-SBzl 100 μM, A405; read-out: C1s Protease Activity
T1 construct: purified from human serum, Complement Technology, Inc; purchased Complement Technology, Inc; host or cells: human serum
T1 sequence (P09871 438-688 limits assumed): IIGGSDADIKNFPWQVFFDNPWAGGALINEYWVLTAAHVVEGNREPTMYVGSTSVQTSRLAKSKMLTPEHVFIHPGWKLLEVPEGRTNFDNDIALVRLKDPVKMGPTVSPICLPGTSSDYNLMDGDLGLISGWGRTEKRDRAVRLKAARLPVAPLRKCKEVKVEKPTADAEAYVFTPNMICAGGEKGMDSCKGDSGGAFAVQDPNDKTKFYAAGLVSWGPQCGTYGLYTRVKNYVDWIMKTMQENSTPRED
T1 sequence (P09871 16-437 partner limits assumed): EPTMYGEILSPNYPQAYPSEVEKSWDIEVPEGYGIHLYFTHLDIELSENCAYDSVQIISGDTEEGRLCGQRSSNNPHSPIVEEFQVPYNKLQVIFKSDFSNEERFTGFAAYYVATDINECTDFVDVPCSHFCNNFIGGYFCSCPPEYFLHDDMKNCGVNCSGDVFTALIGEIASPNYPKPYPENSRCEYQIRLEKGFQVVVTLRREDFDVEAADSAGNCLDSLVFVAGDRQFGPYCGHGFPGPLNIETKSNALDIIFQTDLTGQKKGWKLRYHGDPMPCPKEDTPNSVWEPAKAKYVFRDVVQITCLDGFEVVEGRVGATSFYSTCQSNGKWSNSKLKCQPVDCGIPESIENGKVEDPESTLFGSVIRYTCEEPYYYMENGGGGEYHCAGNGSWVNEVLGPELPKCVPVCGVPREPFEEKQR
Experimental: The assay of Example 3 was used to determine the IC50's of the compounds. Other standard complement assays are also available.
Example 3. Human C1s Enzyme Assay
Human complement C1s enzyme (purified from human serum, Complement Technology, Inc.) at 1.16 nM final concentration was incubated with test compound at various concentrations for 5 min at room temperature in 50 mM Tris, 1 M NaCl, pH 7.5. A synthetic substrate Z-L-Lys-SBzl and DTNB (Ellman's reagent) were added to final concentrations of 100 μM each. Absorbance at 405 nm (A405) was recorded at 30 second intervals for 30 min using a microplate spectrophotometer. IC50 values were calculated by nonlinear regression of complement C1s reaction rates as a function of test compound concentration.

Row | Compound | IC50
1 | C[C@H](O)[C@H](O)[C@@H](O)[C@@H](O)CNCC(=O)N1[C@H]2C[C@@]2(C)C[C@H]1C(=O)NCc1nc(C(=N)N)cs1 [Compound 78, (1S,3S,5S)-N-((4-carbamimidoylthiazol-2-yl)methyl)-5-methyl-2-(((2S,3S,4S,5S)-2,3,4,5-tetrahydroxyhexyl)glycyl)-2-azabicyclo[3.1.0]hexane-3-carboxamide] | > 1000 nM
2 | C[C@@]12C[C@@H]1N(C(=O)CNC(=O)c1ccc(Oc3ccccc3)cn1)[C@H](C(=O)NCc1cc(C(=N)N)cs1)C2 [Compound 93, (1S,3S,5S)-N-((4-carbamimidoylthiophen-2-yl)methyl)-5-methyl-2-((5-phenoxy-picolinoyl)glycyl)-2-azabicyclo[3.1.0]hexane-3-carboxamide] | < 100 nM
3 | CO/C(=N/C#N)c1csc(CNC(=O)[C@@H]2C[C@]3(C)C[C@@H]3N2C(=O)CNC(=O)c2ccc(Oc3ccccc3)cc2)c1 [Compound 31, methyl (E)-N-cyano-5-(((1S,3S,5S)-5-methyl-2-((4-phenoxybenzoyl)glycyl)-2-azabicyclo[3.1.0]hexane-3-carboxamido)methyl)thiophene-3-carbimidate] | > 1000 nM
4 | C[C@@H](NC(=O)[C@@H]1CC2(CN1C(=O)CNC(=O)CCCOc1ccc(F)cc1)OCCO2)c1cc(C(=N)N)cs1 [Compound 104, (S)-N-((R)-1-(4-carbamimidoylthiophen-2-yl)ethyl)-7-((4-(4-fluorophenoxy)butanoyl)-glycyl)-1,4-dioxa-7-azaspiro[4.4]nonane-8-carboxamide] | < 100 nM
5 | COCCOCCCC(=O)NCC(=O)N1[C@H]2C[C@@]2(C)C[C@H]1C(=O)NCc1cc(C(=N)N)cs1 [Compound 136, (1S,3S,5S)-N-((4-carbamimidoylthiophen-2-yl)methyl)-2-((4-(2-methoxyethoxy)butanoyl)glycyl)-5-methyl-2-azabicyclo[3.1.0]hexane-3-carboxamide] | 100 to 1000 nM
6 | C[C@@H](NC(=O)[C@@H]1CC2(CC2)CN1C(=O)CNC(=O)CCCOc1ccccc1)c1cc(C(=N)N)cs1 [Compound 116, (6S)-N-[(1R)-1-(4-carbamimidoylthiophen-2-yl)ethyl]-5-[2-(4-phenoxybutanamido)acetyl]-5-azaspiro[2.4]heptane-6-carboxamide] | < 100 nM
7 | C[C@@H](NC(=O)[C@@H]1C[C@@H](S(C)(=O)=O)CN1C(=O)CNC(=O)CCCOc1ccc(F)cc1)c1cc(C(=N)N)cs1 [Compound 107, (2S,4R)-N-((R)-1-(4-carbamimidoylthiophen-2-yl)ethyl)-1-((4-(4-fluorophenoxy)-butanoyl)glycyl)-4-(methylsulfonyl)pyrrolidine-2-carboxamide] | < 100 nM
8 | C[C@@]12C[C@@H]1N(C(=O)CNC(=O)c1ccc(Oc3ccccc3)cc1)[C@H](C(=O)NCc1cc(/C(N)=N/NS(=O)(=O)c3ccccc3)cs1)C2 [Compound 139, (1S,3S,5S)-N-((4-(imino(2-(phenylsulfonyl)hydrazineyl)methyl)thiophen-2-yl)methyl)-5-methyl-2-((4-phenoxybenzoyl)glycyl)-2-azabicyclo[3.1.0]hexane-3-carboxamide] | > 1000 nM
9 | C[C@@]12C[C@@H]1N(C(=O)CNC(=O)CCCOc1ccccc1C(=O)O)[C@H](C(=O)NCc1cc(C(=N)N)cs1)C2 [Compound 186, 2-(4-((2-((1S,3S,5S)-3-(((4-carbamimidoylthiophen-2-yl)methyl)carbamoyl)-5-methyl-2-azabicyclo[3.1.0]hexan-2-yl)-2-oxoethyl)amino)-4-oxobutoxy)benzoic acid] | < 100 nM
10 | COC(=N)c1csc(CNC(=O)[C@@H]2C[C@]3(C)C[C@@H]3N2C(=O)CNC(=O)c2ccc(Oc3ccccc3)cc2)c1 [Compound 32, methyl 5-(((1S,3S,5S)-5-methyl-2-((4-phenoxybenzoyl)glycyl)-2-azabicyclo[3.1.0]-hexane-3-carboxamido)methyl)thiophene-3-carbimidate] | 100 to 1000 nM
11 | N=C(N)c1csc(CNC(=O)[C@@H]2C=CCN2C(=O)CNC(=O)CCCOc2ccc(S(F)(F)(F)(F)F)cc2)c1 [Compound 95] | 100 to 1000 nM
12 | C[C@@H](NC(=O)[C@@H]1C[C@@H](Oc2ccccc2)CN1C(=O)CNC(=O)CCCOc1ccccc1)c1cc(C(=N)N)cs1 [Compound 111, (2S,4R)-N-((R)-1-(4-carbamimidoylthiophen-2-yl)ethyl)-4-phenoxy-1-((4-phenoxy-butanoyl)glycyl)pyrrolidine-2-carboxamide] | < 100 nM
13 | CC(CCOc1ccccc1)C(=O)NCC(=O)N1CC2(C[C@H]1C(=O)NCc1cc(C(=N)N)cs1)OCCO2 (stereo partly drawn) [Compound 88, (8S)-N-((4-carbamimidoylthiophen-2-yl)methyl)-7-((2-methyl-4-phenoxybutanoyl)glycyl)-1,4-dioxa-7-azaspiro[4.4]nonane-8-carboxamide] | < 100 nM
14 | C[C@@]12C[C@@H]1N(C(=O)CNC(=O)c1ccc(Oc3ccccc3)cc1)[C@H](C(=O)NCc1cc(/C(N)=N/[N+](=O)[O-])cs1)C2 [Compound 11, (1S,3S,5S)-5-methyl-N-((4-((Z)-N′-nitrocarbamimidoyl)thiophen-2-yl)methyl)-2-((4-phenoxybenzoyl)glycyl)-2-azabicyclo[3.1.0]hexane-3-carboxamide] | > 1000 nM

The remaining lines, values ahead:

Row | IC50 | Compound
15 | > 1000 nM | N=C(N)c1csc([C@H](NC(=O)[C@@H]2C[C@@H](OC(F)F)CN2C(=O)CNC(=O)c2ccc(Oc3ccccc3)cc2)c2ccccc2)c1 [Compound 200, (2S,4R)-N-((R)-(4-carbamimidoylthiophen-2-yl)(phenyl)methyl)-4-(difluoromethoxy)-1-((4-phenoxybenzoyl)glycyl)pyrrolidine-2-carboxamide]
16 | > 1000 nM | CC(C)C[C@@H](NC(=O)[C@@H]1C[C@@H](OC(F)F)CN1C(=O)CNC(=O)c1ccc(Oc2ccccc2)cc1)c1cc(C(=N)N)cs1 [Compound 191, (2S,4R)-N-((R)-1-(4-carbamimidoylthiophen-2-yl)-3-methylbutyl)-4-(difluoromethoxy)-1-((4-phenoxybenzoyl)glycyl)pyrrolidine-2-carboxamide]
17 | < 100 nM | COC[C@H]1C[C@@H](C(=O)N[C@H](C)c2cc(C(=N)N)cs2)N(C(=O)CNC(=O)c2ccc(Oc3ccccc3)cc2)C1 (relative stereo) [Compound 252, (2S,4S*)-N-((R)-1-(4-carbamimidoylthiophen-2-yl)ethyl)-4-(methoxymethyl)-1-((4-phenoxybenzoyl)glycyl)pyrrolidine-2-carboxamide]
18 | < 100 nM | N=C(N)c1csc(CNC(=O)[C@@H]2C[C@H](OC(F)(F)F)CN2C(=O)CNC(=O)c2ccc(Oc3ccccc3)cc2)c1 [Compound 244, (2S,4S)-N-((4-carbamimidoylthiophen-2-yl)methyl)-1-((4-phenoxybenzoyl)glycyl)-4-(trifluoromethoxy)pyrrolidine-2-carboxamide]
19 | < 100 nM | C[C@@H](NC(=O)[C@@H]1C[C@](F)(COCCCCCC(=O)O)CN1C(=O)CNC(=O)CCCOc1ccccc1)c1cc(C(=N)N)cs1 [Compound 234, 6-(((3R,5S)-5-(((R)-1-(4-carbamimidoylthiophen-2-yl)ethyl)carbamoyl)-3-fluoro-1-((4-phenoxybutanoyl)glycyl)pyrrolidin-3-yl)methoxy)hexanoic acid]
20 | < 100 nM | N=C(N)c1csc(CNC(=O)[C@@H]2C[C@@H](c3ccc(F)cc3)CN2C(=O)CNC(=O)CCCOc2ccccc2)c1 [Compound 164, (2S,4S)-N-((4-carbamimidoylthiophen-2-yl)methyl)-4-(4-fluorophenyl)-1-((4-phenoxybutanoyl)glycyl)pyrrolidine-2-carboxamide]
